Source: patent US6548496B2, “Substituted 3-cyano-[1.7], [1.5], and [1.8] naphthyridine inhibitors of tyrosine kinases” (American Cyanamid Company, priority 1999, dated 2003)

What was measured:
[1] = system: A2780S; experiment: Inhibition of cancer cell growth by cell number, A2780S; type: cell-based, Human; conditions: 48 hours exposure, Sulforhodamine B
Protocol: (§1) Human tumor cell lines were plated in 96-well plates (250 μl/well, 1-6×10^4 cells/ml) in RPMI 1640 medium, containing 5% FBS (Fetal Bovine Serum). […] After 48 hours exposure to test compounds, cells were fixed with trichloroacetic acid, and stained with Sulforhodamine B. After washing with trichloroacetic acid, bound dye was solubilized in 10 mM Tris base and optical density was determined using a plate reader. Under conditions of the assay the optical density is proportional to the number of cells in the well. IC50s (concentrations causing 50% inhibition of cell growth) were determined from the growth inhibition plots. The test procedure is described in details by Philip Skehan et. at J. Natl. Canc. Inst., 82, 1107-1112 (1990). […] Information about some of the cell lines used in these test procedures is available from the American […]: Cell Lines and Hybridomas, 1994 Reference Guide, 8th Edition. The Her2Neu cell line is a 3T3 line that has bbeen transfected with Her2 receptor kinase.

[2] = system: A2780DDP; experiment: Inhibition of cancer cell growth by cell number, A2780DDP; type: cell-based, Human; conditions: 48 hours exposure, Sulforhodamine B
Protocol: as §1

[3] = system: A431; experiment: Inhibition of cancer cell growth by cell number, A431; type: cell-based, Human; conditions: 48 hours exposure, Sulforhodamine B
Protocol: as §1

[4] = system: MDA435; experiment: Inhibition of cancer cell growth by cell number, MDA435; type: cell-based, Human; conditions: 48 hours exposure, Sulforhodamine B
Protocol: as §1

[5] = system: SW620; experiment: Inhibition of cancer cell growth by cell number, SW620; type: cell-based, Human; conditions: 48 hours exposure, Sulforhodamine B
Protocol: as §1

[6] = system: LOX; experiment: Inhibition of cancer cell growth by cell number, LOX; type: cell-based, Human; conditions: 48 hours exposure, Sulforhodamine B
Protocol: as §1

[7] = system: SKBR3; experiment: Inhibition of cancer cell growth by cell number, SKBR3; type: cell-based, Human; conditions: 48 hours exposure, Sulforhodamine B
Protocol: as §1

[8] = target: T1, recombinant human MEK 1 (MAPKK) / human ERK2 (MAPK) (Homo sapiens, UniProt P28482+Q02750); experiment: Mitogen Activated Protein Kinase (MAPK) coupled Mek-Erk assay; type: biochemical; conditions: coupled MEK 1/ERK2 assay, 33P ATP; read-out: IC50, inhibition of Mitogen Activated Protein Kinase (Mek-Erk)
T1 construct: The recombinant enzymes used were prepared as GST fusion proteins of human ERK 2 and human MEK 1
Protocol: To evaluate inhibitors of the MAP (mitogen activated protein) kinase a two component coupled standard pharmacological test procedure, which measures phosphorylation of a serine/threonine residue in an appropriate sequence in the substrate in the presence and absence of a putative inhibitor, was used. Recombinant human MEK 1 (MAPKK) was first used to activate recombinant human ERK2 (MAPK) and the activated MAPK (ERK) was incubated with substrate (MEP peptide or MYC peptide) in the presence of ATP, Mg^+2 and radiolabeled ^33P ATP. The phosphorylated peptide was captured on a P 81 phosphocellulose filter (paper filter or embedded in microtiter plate) washed and counted by scintillation methods. […]
The reaction was run as follows in 50 mM Tris kinase buffer, pH 7.4 in a reaction volume of 50 ul. […] The filters or MTP were briefly air dried before addition of scintillant and samples were counted in the appropriate scintillation counter set up for reading ^33P isotope. […]
The raw data was captured as cpm Sample replicates were averaged and corrected for background count. Mean cpm data was tabulated by group and % inhibition by a test compound was calculated as (corrected cpm control-corrected. cpm sample/control)×100=% inhibition. […]

T1 sequence (P28482 2-360): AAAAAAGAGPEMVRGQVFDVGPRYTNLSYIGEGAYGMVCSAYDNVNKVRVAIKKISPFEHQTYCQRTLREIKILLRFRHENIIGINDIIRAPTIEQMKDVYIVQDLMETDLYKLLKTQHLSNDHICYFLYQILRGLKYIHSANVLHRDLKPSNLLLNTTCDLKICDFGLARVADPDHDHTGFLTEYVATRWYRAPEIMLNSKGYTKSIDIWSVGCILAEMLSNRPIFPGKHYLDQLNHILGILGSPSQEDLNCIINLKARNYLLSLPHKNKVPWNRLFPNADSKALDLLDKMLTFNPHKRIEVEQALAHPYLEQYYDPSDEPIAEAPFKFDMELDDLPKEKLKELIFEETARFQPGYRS
T1 sequence (Q02750 whole entry, the tested form may be a part): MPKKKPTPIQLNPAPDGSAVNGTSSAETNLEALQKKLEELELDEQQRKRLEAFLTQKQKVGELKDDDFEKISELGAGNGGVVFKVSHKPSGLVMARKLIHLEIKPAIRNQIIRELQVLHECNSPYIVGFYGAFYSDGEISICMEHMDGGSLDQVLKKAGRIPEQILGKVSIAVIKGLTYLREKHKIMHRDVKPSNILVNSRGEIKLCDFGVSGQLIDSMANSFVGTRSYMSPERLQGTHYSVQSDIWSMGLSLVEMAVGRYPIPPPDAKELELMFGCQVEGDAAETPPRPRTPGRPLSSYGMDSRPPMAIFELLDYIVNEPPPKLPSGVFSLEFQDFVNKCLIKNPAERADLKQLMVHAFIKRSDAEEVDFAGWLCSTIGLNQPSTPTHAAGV

Compound | IC50, inhibition of cell growth, A2780S [1] | IC50, inhibition of cell growth, A2780DDP [2] | IC50, inhibition of cell growth, A431 [3] | IC50, inhibition of cell growth, MDA435 [4] | IC50, inhibition of cell growth, SW620 [5] | IC50, inhibition of cell growth, LOX [6] | IC50, inhibition of cell growth, SKBR3 [7] | IC50 [8]
1-[4-(3-Bromo-phenylamino)-3-cyano-[1,7]naphthyridin-6-yl]-4-diethylamino-pyridinium Fluoride [Example 65] | 31 µg/mL | 52 µg/mL | 59 µg/mL | 47 µg/mL | 42 µg/mL | 56 µg/mL | 41 µg/mL | –
N#Cc1cnc2ncc([N+](=O)[O-])cc2c1Nc1cccc(Br)c1 [Example 21, 4-(3-Bromo-phenylamino)-6-nitro-[1,8]naphthyridine-3-carbonitrile] | – | – | – | – | – | – | – | 10 µM
